Broadly, the inhibition is the change of the read-out against control, counted positive when it falls. What is called ED50 is the dose at which the effect has come halfway, by size or by number of responders. Broadly, the Ki is a measure of affinity in units of concentration, obtained from inhibition or displacement.

Calls of active or inactive are those of the source. The calls are words filed in the database; no cut-off is given here.

The target of test [1] is T1, Alpha-1B adrenergic receptor (Homo sapiens) (UniProt P35368).
T1 sequence (whole entry): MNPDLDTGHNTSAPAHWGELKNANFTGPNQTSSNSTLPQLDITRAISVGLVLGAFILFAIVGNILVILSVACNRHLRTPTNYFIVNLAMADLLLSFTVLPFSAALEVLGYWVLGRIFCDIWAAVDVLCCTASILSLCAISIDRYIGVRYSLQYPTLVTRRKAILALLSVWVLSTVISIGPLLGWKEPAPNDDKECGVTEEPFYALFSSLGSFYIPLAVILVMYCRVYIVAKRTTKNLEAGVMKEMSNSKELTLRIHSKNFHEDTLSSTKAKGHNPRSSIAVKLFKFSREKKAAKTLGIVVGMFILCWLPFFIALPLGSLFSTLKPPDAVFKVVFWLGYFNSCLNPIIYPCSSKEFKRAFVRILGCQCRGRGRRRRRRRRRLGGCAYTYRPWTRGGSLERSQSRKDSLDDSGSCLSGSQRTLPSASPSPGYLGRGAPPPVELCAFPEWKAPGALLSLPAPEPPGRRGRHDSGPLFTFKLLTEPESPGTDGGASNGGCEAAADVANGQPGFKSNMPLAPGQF
The note with it: CHO, 100 nM.

The test system of another test is Rattus norvegicus. The experiment in a line: Antinociceptive activity in Sprague-Dawley rat dosed intravenously using cumulative dosing every 5 mins until rat maxed-out on hot plate by hot plate test. It is filed as functional. As to conditions: iv.
Test [2] concerns the target T2, Alpha-1B adrenergic receptor (Homo sapiens, UniProt P35368).
T2 sequence (P35368 whole entry): T1 sequence (whole entry)
The experiment in a line: Displacement of [3H]prazosin from human recombinant adrenergic alpha-1B receptor expressed in CHO cell membranes incubated for 60 mins.

Test [3] addresses T3, Alpha-1A adrenergic receptor (Homo sapiens) (UniProt P35348).
T3 sequence (whole entry): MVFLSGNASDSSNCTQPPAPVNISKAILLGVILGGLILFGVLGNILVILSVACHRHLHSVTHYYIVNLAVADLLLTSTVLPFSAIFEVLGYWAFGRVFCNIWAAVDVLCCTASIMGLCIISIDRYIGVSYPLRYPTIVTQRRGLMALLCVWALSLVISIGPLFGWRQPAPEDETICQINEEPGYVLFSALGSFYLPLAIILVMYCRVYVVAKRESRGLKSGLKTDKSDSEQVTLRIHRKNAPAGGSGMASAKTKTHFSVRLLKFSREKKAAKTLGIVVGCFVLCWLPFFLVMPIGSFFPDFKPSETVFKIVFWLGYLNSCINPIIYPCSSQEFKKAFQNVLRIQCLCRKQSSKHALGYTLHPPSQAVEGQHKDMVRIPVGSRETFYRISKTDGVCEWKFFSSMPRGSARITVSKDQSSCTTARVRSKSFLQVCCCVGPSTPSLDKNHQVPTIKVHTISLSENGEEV
The experiment in a line: Partial agonist activity at human recombinant adrenergic alpha-1A receptor expressed in CHO cells assessed as stimulation of intracellular calcium levels incubated at room temperature by fluorimetry. Type of test: functional, cell-based. A general note: Calcium flux is commonly read through the fluorescence of an indicator in the cells.

Test [4] has as its target T4, Alpha-2A adrenergic receptor (Homo sapiens, UniProt P08913).
T4 sequence (P08913 whole entry): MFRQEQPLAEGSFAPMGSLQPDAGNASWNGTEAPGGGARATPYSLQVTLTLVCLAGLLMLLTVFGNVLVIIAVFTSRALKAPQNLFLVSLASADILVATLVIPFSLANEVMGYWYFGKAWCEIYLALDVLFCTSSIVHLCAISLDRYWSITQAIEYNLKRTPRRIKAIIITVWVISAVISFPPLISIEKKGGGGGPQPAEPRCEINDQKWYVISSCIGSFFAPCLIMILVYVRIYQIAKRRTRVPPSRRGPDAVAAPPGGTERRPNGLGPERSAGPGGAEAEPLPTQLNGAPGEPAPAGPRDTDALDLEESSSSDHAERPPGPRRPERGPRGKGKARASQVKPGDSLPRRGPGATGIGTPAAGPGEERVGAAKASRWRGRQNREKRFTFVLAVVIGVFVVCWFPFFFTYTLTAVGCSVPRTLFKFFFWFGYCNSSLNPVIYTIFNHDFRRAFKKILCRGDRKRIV
As to the kind of experiment: biochemical.

The target in test [5] is T5, Alpha-2C adrenergic receptor (Homo sapiens) (UniProt P18825).
T5 sequence (whole entry): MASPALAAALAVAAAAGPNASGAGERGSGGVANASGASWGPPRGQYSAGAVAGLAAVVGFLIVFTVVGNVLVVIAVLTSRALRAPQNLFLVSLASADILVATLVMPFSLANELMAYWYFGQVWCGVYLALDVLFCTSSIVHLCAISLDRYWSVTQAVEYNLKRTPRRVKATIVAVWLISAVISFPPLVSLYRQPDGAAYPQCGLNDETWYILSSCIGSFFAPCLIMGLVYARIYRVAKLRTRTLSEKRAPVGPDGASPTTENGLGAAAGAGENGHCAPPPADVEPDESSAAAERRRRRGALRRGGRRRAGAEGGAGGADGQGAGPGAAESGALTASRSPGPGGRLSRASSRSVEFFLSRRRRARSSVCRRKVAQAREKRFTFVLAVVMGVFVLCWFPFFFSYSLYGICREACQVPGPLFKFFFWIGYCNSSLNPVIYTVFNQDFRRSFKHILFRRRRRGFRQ
The experiment in a line: Competitive antagonist activity at human recombinant adrenergic alpha-2C receptor expressed in CHO cells assessed as inhibition of epinephrine-induced intracellular calcium levels incubated at room temperature by fluorimetry. Type of test: functional, cell-based.

The target of test [6] is T6, Alpha-1D adrenergic receptor (Homo sapiens) (UniProt P25100).
T6 sequence (whole entry): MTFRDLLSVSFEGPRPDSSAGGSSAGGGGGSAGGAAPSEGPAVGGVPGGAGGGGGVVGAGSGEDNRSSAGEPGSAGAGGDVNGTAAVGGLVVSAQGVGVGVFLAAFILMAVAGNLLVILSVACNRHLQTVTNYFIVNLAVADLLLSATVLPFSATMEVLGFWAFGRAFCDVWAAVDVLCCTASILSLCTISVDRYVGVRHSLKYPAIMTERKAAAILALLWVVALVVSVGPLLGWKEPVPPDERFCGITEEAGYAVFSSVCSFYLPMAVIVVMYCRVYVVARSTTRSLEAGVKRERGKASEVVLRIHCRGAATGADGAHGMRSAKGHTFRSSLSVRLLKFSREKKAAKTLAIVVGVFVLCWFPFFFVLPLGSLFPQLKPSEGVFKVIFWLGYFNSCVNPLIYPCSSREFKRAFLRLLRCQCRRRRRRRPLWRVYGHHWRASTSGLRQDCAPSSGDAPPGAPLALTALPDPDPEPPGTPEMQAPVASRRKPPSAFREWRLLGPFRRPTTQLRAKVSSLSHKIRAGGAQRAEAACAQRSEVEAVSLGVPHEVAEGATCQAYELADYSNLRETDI
The experiment in a line: Partial agonist activity at human recombinant adrenergic alpha-1D receptor expressed in rat RBL cells assessed as stimulation of intracellular calcium levels incubated at room temperature by fluorimetry. Type of test: functional, cell-based.

Test [7] addresses T7, Alpha-2C adrenergic receptor (Homo sapiens, UniProt P18825).
T7 sequence (P18825 whole entry): T5 sequence (whole entry)
The experiment in a line: biochemical.

Turning to `CC[C@@H]1CN2CCc3c([nH]c4cccc(OC)c34)[C@H]2C[C@@H]1/C(=C\OC)C(=O)OC`, in test [1], the inhibition was found to be 25.2%. This compound also showed an ED50 in the test on Rattus norvegicus of 6.25 mg/kg.

On to `CC[C@@H]1CN2CCc3c([nH]c4cccc(OC)c34)[C@@H]2C[C@@H]1/C(=C\OC)C(=O)OC`, for which the results for the Ki in test [2], in test [4] and in test [7] were 4.77 µM, 4.72 µM and 2.32 µM, respectively. Further, the outcome in test [3] and in test [6] was Active. In test [5], the inhibition result was “Active”.

For the origin of these results see ChEMBL document CHEMBL4376854, “Investigation of the Adrenergic and Opioid Binding Affinities, Metabolic Stability, Plasma Protein Binding Properties, and Functional Effects of Selected Indole-Based Kratom Alkaloids” (J Med Chem, 2020).
